Results on 6 molecules are retold here after patent publication US20100150844A1, “USE OF 8-QUINOLINOL AND ITS ANALOGS TO TARGET CANCER STEM CELLS” (The Johns Hopkins University, priority 2006, published 2010).

One data set concerns MCF7 sphere cells. The data set is described as follows: Cell proliferation assay (MTT), MCF7 sphere cells. It is filed as cell-based, human. On the procedure:
(§1) FIG. 2. Susceptibility of MCF7 sphere cells to common anticancer drugs compared with MCF7 cells. Single MCF7 and MCF7 sphere cells were inoculated into 96 well plates at a concentration of 5000 cells per well. After overnight culture, cells were subject to selected clinical drug treatment at the indicated dose for three days. Cell proliferation was determined by MTT assay.
MCF7 and MCF7 sphere cell culture. Human breast cancer cell line MCF7 cells, MDA-MB-435 cells were obtained from ATCC (American Type Culture Collection). Cells were grown in Dulbecco's Modified Eagle's Medium (DMEM) (Invitrogen) supplemented with 10% fetal bovine serum (FBS) (Invitrogen), 100 units/ml penicillin and 100 ug/ml streptomycin (Invitrogen), in a 37° C. incubator containing 5% CO2. To isolate and culture MCF7 sphere cells, SP cells were sorted based on protocol shown below. Sphere cell culture was performed according to published protocol with modifications^28-30. Briefly, single cells were plated in ultralow attachment plates (Corning, N.Y.) at a density of 20,000 viable cells/mL in primary culture and 1000 cells/mL in passages. Cells were grown in a serum-free mammary epithelial growth medium without bovine pituitary extract (MEGM, BioWhittaker), but supplemented with serum substitute B27 (Invitrogen), 20 ng/mL, Epidermal Growth Factor (EGF), 20 ng/mL, and 20 ng/mL basic fibroblast growth factor (bFGF) (BD Biosciences). In order to passage sphere cells, spheres were collected into 15 ml conic tubes and allowed to settle for 15 minutes. Supernatant was removed. Sphere cells were dissociated enzymatically with 0.05% trypsin, 0.5 mM EDTA (Invitrogen) and mechanically by a glass Pasteur pipette. The cells obtained from dissociation were passed through a 40-μm sieve and analyzed microscopically for single cells and subjected to the experiments below.
(§2) Cell proliferation assay. […] Each concentration was repeated three times.

The subject of data set [1] is NF-κB. The experiment in a line: Trans-AM NF-κB assay on nuclear extracts of MCF7 sphere cells. The conditions noted are these: 5 μM, 24 hours. It is filed as cell-based, human. On the procedure: (§3) FIGS. 3A-3B. A: Susceptibility of MCF7 and MCF7 sphere cells PI3K pathway inhibitor, rapamycin and NF-κB pathway inhibitors, PTL and PDTC at indicated doses. Experiment was performed as described in FIG. 2 and Materials and Methods. B: Inhibition of NF-κB activity of MCF7 and MCF7 sphere cells after treatment with PTL and PDTC at indicated concentrations. Cells were treated with these compounds at indicated doses for 24 hours. Nuclear extract was prepared from control and treated cells. The quantification of NF-κB activation was performed according to product manual. Nuclear extract preparation. […] After the nuclear lysates were centrifuged, supernatants were collected for quantification of NF-κB activation. The protein concentrations in the supernatants were determined using the BCA protein assay kit (Pierce, Rockford, Ill.). Quantification of NF-κB activation. Trans-AM NF-κB assay, an enzyme-linked immunosorbent assay (ELISA)-based method (Trans-AM NF-κB; Active Motif, Carlsbad, Calif.) was used for NF-κB activity quantification according to the manufacturer's instruction. Briefly, cell nuclear extracts were placed in 96-well plates coated with an oligonucleotide containing the NF-κB consensus sequence, and the presence of active NF-κB was detected by using antibodies specific for p50 subunits that are not complexed to IκB and thus able to bind the consensus sequence. […]

The next data set concerns MCF7 cells. The experiment in a line: Cell proliferation assay (MTT), MCF7 parental cells. It is filed as cell-based, human. On the procedure:
as §1, §2

Data set [2] relates to NF-κB. The data set is described as follows: Trans-AM NF-κB assay on nuclear extracts of MCF7 cells. It is filed as cell-based. The following applies: Homo sapiens, 24 hours. On the procedure: as §3
For data set [3] the following is noted: mouse, U.S. National Toxicology Program acute toxicity studies; cited from earlier work.
Another data set has as its system MCF7 SP cells. The experiment in a line: cells. The conditions noted are these: Homo sapiens, MCF7, read-out: growth inhibition. The procedure: (§4) To identify and sort SP and non-SP fractions, cells were washed with phosphate buffered saline (PBS) and detached from the culture dish with trypsin and EDTA, pelleted by centrifugation, and resuspended in 37° C. DMEM containing 2% FBS at 1×10^6 cell/ml. Cell staining was performed according to the protocol originally developed by Goodell et al with slight modification^46. […] Following staining, the cells were spun down and resuspended in Hanks'Balanced Salt Solution (HBSS) (Invitrogen) containing 1 μg/ml propidium iodide and maintained at 4° C. for flow cytometry analysis/sorting. Cell analysis and sorting were performed on a MoFlo cytometer (Dako Cytomation, Fort Collins, Colo. USA) equipped with a Coherent Enterprise II laser emitting MLUV at 351 nm and blue 488 nm lines.
(§5) Cell proliferation assay. To test the sensitivity of MCF7 and MCF7 sphere cells to specific compounds, both MCF7 and MCF7 sphere single cells were seeded at 3×10^4 cells/ml in 96-well plates. After overnight incubation, serial concentrations of tested compounds were added. Each concentration was repeated three times. These cells were incubated in a humidified atmosphere with 5% CO2 for 3 days. […] The medium was removed and formazan was dissolved in DMSO and the optical density was measured at 590 nm using a Bio-assay reader (Bio-Rad, USA).

The test system of the next data set is MCF7 non-SP cells. The experiment in a line: cells. The conditions noted are these: Homo sapiens, MCF7, read-out: growth inhibition. The procedure: as §4, §5
For a further data set, the system named is MDA-MB-435 tumor. The experiment in a line: Antitumor activity in nude mouse xenograft model, MDA-MB-435. The class given is in vivo. The procedure:
(§6) FIGS. 5A-5F. […] Experiment was performed as described in FIG. 3 and Materials and Methods. B: Structure of NSC125034 and 8Q. […] D: In vivo effect of 8Q (4 mg/Kg) by intratumor injection. […] Mice were treated twice weekly for 3 weeks. Tumor sizes were measured weekly. E: In vivo effect of 8Q (20 mg/Kg) by tail vein injection on two different types of breast cancer cell lines, MCF7 (estrogen dependent, xenograft model reflect the early-stage breast malignancy) and MDA-MB435 (estrogen […], xenograft model reflect the later-stage breast malignancy). Mice were treated twice weekly for 4 weeks. (1) MCF7 xenograft (2) MDA-MB435 xenograft. F: Total body weight of individual mouse in the tail vein injection experiment was determined weekly and the average body weight was plotted.
(§7) Antitumor activity in xenograft model. […] Stock solutions of paclitaxel alone, 8-Quinolinol (8Q) alone or in combination with paclitaxel were prepared by dissolving the drugs in a vehicle solution (EtOH:cremophor, 50:50 v/v). Vehicle or paclitaxel alone, 8Q alone and 8Q in combination with paclitaxel stock solution were mixed with saline (10:90 v/v). For intratumor injection, the 8Q dose was 4 mg/kg, given twice weekly for three weeks. […] The tumor volumes were determined by measuring the length (l) and the width (w) and calculating the volume (V=lw^2/2). […]

A further data set has as its system MCF7 xenograft. The following applies: tail vein injection, 8Q 20 mg/kg twice weekly for 4 weeks, FIG. 5E(1). The procedure:
as §6, §7

The conditions of data set [4]: tail vein, 20 mg/kg, nude mice. The procedure:
as §6, §7

The conditions of data set [5]: in words; solvent DMSO or ethanol.
For data set [6] the following is noted: rat, U.S. National Toxicology Program acute toxicity studies; cited from earlier work.
The mark [7] stands for this setting: comparison sphere versus parental cells, in words.

Entries after “also recorded” stand apart in the source; their conditions may differ. Read-outs that look alike come from different tables or passages of the source. Non-standard residues stand in square brackets, D forms with d. Residues, ends and D or L forms follow the SMILES beside them. *: point of attachment. Nle = CCCC[C@H](N)C(=O)O; Cbz = O=C(OCc1ccccc1)*

As to `S=C(S)N1CCCC1` [PDTC, pyrrolidine dithiocarbamate], in the data set on MCF7 sphere cells (Homo sapiens, 1 uM, MCF7 sphere cells, read-out: growth inhibition), the inhibition at 1 µM stood at 50.8%. Besides, the “growth inhibition on MCF7 sphere cells compared with MCF7 cells” value (shortened to “growth inhibition … compared with MCF7 cells”) in the data set on MCF7 sphere cells (setting [7]) is listed as “inhibit MCF7 sphere cells more strongly than the parental MCF7 cells; also recorded: very marked growth inhibition on MCF7 sphere cells compared to MCF7 cells”. In addition, the “decrease of NF-κB activity” value in the data set on NF-κB [1] is recorded as 61.8%. In addition, in the data set on MCF7 cells (1 uM, MCF7 cells), the growth inhibition entry is “no growth inhibition effects”. Further, in the data set with NF-κB [2], at 5 µM the inhibition was 33.6%.
Take `Oc1cccc2cccnc12` [8Q, 8-quinolinol]: the inhibition at 5 µM with MCF7 sphere cells (Homo sapiens, 72 h, 5 μM, three day treatment, MCF7 sphere cells, read-out: growth inhibition) stood at 86%; in the data set with MCF7 SP cells, 84.7%; in the data set on MCF7 non-SP cells, 71.9%; in the data set with MCF7 cells (Homo sapiens, MCF7, 72 h, read-out: growth inhibition) it was 30%. For the same molecule, in the data set with MCF7 sphere cells (setting [7]), the “growth inhibition … compared with MCF7 cells” value is reported as “preferentially inhibit the cancer stem cells over bulk cancer cells”. Further, the “LD50 (oral)” value in [3] was 20 g/kg; in data set [6] it was 1.2 g/kg. For the same molecule, the tumor growth inhibition result in the data set with MDA-MB-435 tumor (intratumor injection, 8Q 4 mg/kg twice weekly for 3 weeks, FIG. 5D) is listed as “significantly inhibited tumor growth”; in the data set with MCF7 xenograft it was “significantly inhibited tumor growth”. For the same molecule, in data set [4], the “toxicity judged by apparent symptoms and body weight loss” value was “did not show significant toxicity”. The solubility result in data set [5] is recorded as “Ethanol soluble”.
Consider `CC(=O)O[C@H]1C(=O)[C@@]2(C)[C@H]([C@H](OC(=O)c3ccccc3)[C@]3(O)C[C@H](OC(=O)[C@H](O)[C@@H](NC(=O)c4ccccc4)c4ccccc4)C(C)=C1C3(C)C)[C@]1(OC(C)=O)CO[C@@H]1C[C@@H]2O` [paclitaxel], for which the inhibition at 0.25 µM in the data set on MCF7 sphere cells (Homo sapiens, 72 h, 0.25 uM, 3 days, MCF7 sphere cells, read-out: growth inhibition) came to 6.1%; in the data set on MCF7 cells (Homo sapiens, 72 h, 0.25 uM, 3 days, MCF7 parental cells, read-out: growth inhibition), 44.5%. Moreover, the tumor growth inhibition result with MDA-MB-435 tumor (positive control, paclitaxel 15 mg/kg) is given as “inhibited the tumor growth as expected”.
Turning to `CCCC[C@@H](C=O)NC(=O)[C@H](CC(C)C)NC(=O)[C@H](CC(C)C)NC(=O)OCc1ccccc1` [GSI1] (Cbz-Leu-Leu-[Nle]-aldehyde), in the data set on MCF7 sphere cells (setting [7]), the “growth inhibition … compared with MCF7 cells” value is “did not inhibit MCF7 sphere cells more than the MCF7 parental cells; also recorded: no higher growth inhibitor ability on MCF7 sphere cells than MCF7 cells”.
With `CC1=C2C[C@H]3[C@@H](CC=C4C[C@@H](O)CC[C@@]43C)[C@@H]2CC[C@]12O[C@@H]1C[C@H](C)CN[C@H]1[C@H]2C` [cyclopamine], the “growth inhibition … compared with MCF7 cells” value with MCF7 sphere cells is on record as “did not inhibit MCF7 sphere cells more than the MCF7 parental cells; also recorded: no higher growth inhibitor ability on MCF7 sphere cells than MCF7 cells”.

B1: DKK1: Wnt pathway inhibitor (protein, UniProt O94907 32-266, looked up)
Dickkopf-related protein 1: TLNSVLNSNAIKNLPPPLGGAAGHPGSAVSAAPGILYPGGNKYQTIDNYQPYPCAEDEECGTDEYCASPTRGGDAGVQICLACRKRRKRCMRHAMCCPGNYCKNGICVSSDQNHFRGEIEETITESFGNDHSTLDGYSRRTTLSSKMYHTKGQEGSVCLRSSDCASGLCCARHFWSKICKPVLKEGQVCTKHRRKGSHGLEIFQRCYCGEGLSCRIQKDHHQASNSSRLHTCQRH
On to B1, for which the “growth inhibition … compared with MCF7 cells” value in the data set on MCF7 sphere cells (setting [7]) is reported as “no higher growth inhibitor ability on MCF7 sphere cells than MCF7 cells”; in the data set with MCF7 sphere cells (comparison sphere versus parental cells, in words, listed as DKKI), “did not inhibit MCF7 sphere cells more than the MCF7 parental cells”.

As a reminder, the inhibition is the change of the read-out against control, counted positive when it falls.
